Source: patent US20070059385A1, “Safe pharmaceutical composition for treating and preventing cancer and method of use” (priority 2005, published 2007)

Legend:
[1] = test system: carcinogen-DNA binding; assay: Inhibition of carcinogen-DNA binding; type: cell-based
Method: Cells were maintained in 75-cm^2 tissue culture flask with media supplemented with retinoic acid (0.1 μg/ml) and epinephrine (0.5 μg/ml). The cells were passage when they reached approximately 80% confluence and were maintained at 37° C. in 5% CO2. Cells were plated at a density of 5×10^5 cells/well in 6-well tissue culture plates and allowed to incubated for 18 h at 37° C. in 5% CO2. Following incubation, the DNA was harvested and resuspended in Tris-EDTA buffer. RNA was removed by treating with RNase T1 and RNase A at 37° C. for 1 h. An aliquot was used for determining the DNA content by the absorbency at 260 nm, and the rest of the sample was used to determine the radioactivity; the percentage inhibition of carcinogen-DNA binding was determined by measuring the cpm/mg of DNA in the carcinogen.

[2] = test system: gastric cancer cells; assay: Cellular diversion of gastric cancer cells (NBT); type: cell-based
Method: The gastric cancer cells and normal cells were cultured in PRMI 1640 medium supplement with 10% FCS serum. Other method is similar to example 8.

[3] = test system: TA98; assay: Salmonella mutagenicity assay TA98
Method: (§1) The method for detecting mutagenicity of HHT, with the Salmonella system that detects the reversion of the bacteria from His^− to His^+, is widely used.
(§2) The bacterial tester strains used for mutagenesis testing are TA97, TA98, TA100 and TA102. Mutagenesis testing method was done as described previously ^[77-88]. In brief, TA97, TA98, TA100 and TA102 were grown in agar gel culture. The petri plats (100×15 mm style) contain 30 ml with 2% glucose. The agar mixture was agitated vigorously and immediately poured into plates of minimal agar. The cultures were incubated at 37° C. in a dark and 5% CO2 in air for 48 hours. After 48 hours the colonies in both test and controls are counted. The presence of a background lawn of bacteria on the histidine-poor soft agar plate was used as an indication that gross toxic effects were absent. Mutagenicity assays were carried out at least in triplicate.
(§3) The range of spontaneous mutation rates for the individual strains, which were considered to be acceptable, was TA97 (100-170), TA98 (20-40) and TA100 (80-150).

[4] = test system: salmonella typhimurium strains TA97, TA98 and TA100; assay: Salmonella mutagenicity assay, overall conclusion; settings: conclusion from Table 14
Method: as §1, §2, §3

[5] = test system: NNK-induced lung tumorigenesis; assay: NNK-induced lung tumorigenesis; type: in vivo; settings: mice; drug 20 mg/kg daily by injection; 10 μmol NNK i.p.; pulmonary adenomas after sixteen weeks
Method: Every group had 20 mice. […] For control group, each mouse was gave same volume of physiological saline. Three days later, mice were gave 10 μmol NNK (in 0.1 ml saline) by i.p. injection. Sixteen weeks after these treatments the mice were killed and pulmonary adenomas were counted. The statistical significance of bioassay data was determined by student's test.

[6] = test system: kidney cell cultures; assay: Analysis of chromosomes (chromosomal aberrations in kidney); type: in vivo
Method: For metaphase chromosomes, kidney cell cultures were treated with colchicines (0.4 μg/ml) for 3-4 hours. The cells were then trypsinized and treated with hypotonic solution (0.075 M KCl) at 37° C. for 30 minutes. The cell suspensions were centrifuged and the pellets fixed in cold acetic acid:methanol (1:3) solution. Slides were prepared by standard air-drying method and stained with 2% Giemsa solution. The results scored by analyzing at least 200 well spread metaphases with 44±2 chromosomes for gaps, chromatid and chromosome breaks and exchanges, and association. Chromatid and chromosome aberrations were scored separately, and the total percentage was subjected to statistical analysis. Gaps were recorded but not included in the total frequency. Endoreduplication (endomitosis) was estimated from at least 500 cells/animal and expressed as a percentage.

[7] = test system: Human leukemia cells (HL-60); assay: Apoptosis of human leukemia cells; type: cell-based
Method: Human leukemia cells (HL-60) were grown in RPMI Medium 1640 supplemented with 10% (v/v) heat-inactivated FBS (56° C. for 30 min) at 37° C. in a humidified 95% air/5% CO2 atmosphere. Cells were seeded at a level of 2×10^5 cells/ml. Cells were allowed to attain a maximum density of 1.2×10^6 cells/ml before being passed by dilution into fresh medium to a concentration of 2×10^5 cells/ml. […]
For evaluation of apoptosis by flow cytometry, cells were fixed and permeabilized in 1% paraformaldehyde and ice-cold 70% ethanol. Digoxigenin-dUTP was incorporated at the 3′OH ends of the fragmented DNA in the presence of terminal deoxynucleotidyltranserase, and the cells were incubated with FITC-labeled anti-digoxigenin-dUTP and with propidium iodide. Green (apoptotic cells) and orange (total DNA) fluorescence were measured with a FACScan flow cytometer and analyzed with LYSIS II and CELLFIT programs. Data were analyzed by Student's t-test. P values were considered significant when <0.05. […]
Apoptosis of HL-60 cells was assessed by changes in cell morphology and by measurement of DNA nicks using the Apop Tag Kkt (Oncor, Gaithersburg, Md.). […] These features make apoptotic cells relatively easy to distinguish from necrotic cells. These changes are detected on cytospin preparations stained with Diff-Quick Stain Set. Apoptotic cells were enumerated in a total of about 300 cells by light microscopy.

[8] = duration of treatment 0.5 months
[9] = duration of treatment 1.0 months
[10] = duration of treatment 2.0 months
[11] = duration of treatment 3.0 months
[12] = duration of treatment 4.0 months
[13] = duration of treatment 5.0 months

Q: How did the “Inhibition (%) of carcinogen-DNA binding” value [1] turn out when `COC(=O)C[C@](O)(CCCC(C)(C)O)C(=O)O[C@@H]1C(OC)=C[C@]23CCCN2CCc2cc4c(cc2[C@H]13)OCO4` [HHT, Homoharringtonine] was run?
A: Its value is 56.8 ± 6.2%.

Q: And the “NBT (%)” value [2]?
A: Its value is 58 ± 8.9 %.

Q: And the “Number of His^+ revertants/plate” value ([3]; TA98 +S, 0.1 μg/plate)?
A: The value was 34 ± 4 revertants/plate.

Q: And the “Number of His^+ revertants/plate” value ([3]; TA98 +S, 1 μg/plate)?
A: The value was 32 ± 4 revertants/plate.

Q: And the “Number of His^+ revertants/plate” value ([3]; TA98 +S, 10 μg/plate)?
A: Its value is 36 ± 3 revertants/plate.

Q: What about the “Number of His^+ revertants/plate” value ([3]; TA98 +S, 100 μg/plate) of the same molecule?
A: Its value is 34 ± 4 revertants/plate.

Q: And the “Number of His^+ revertants/plate” value ([3]; TA98 −S, 0.1 μg/plate)?
A: Its value is 29 ± 3 revertants/plate.

Q: And the “Number of His^+ revertants/plate” value ([3]; TA98 −S, 1 μg/plate)?
A: Its value is 30 ± 3 revertants/plate.

Q: And the “Number of His^+ revertants/plate” value ([3]; TA98 −S, 10 μg/plate)?
A: Its value is 38 ± 4 revertants/plate.

Q: And the “Number of His^+ revertants/plate” value ([3]; TA98 −S, 100 μg/plate)?
A: Its value is 32 ± 4 revertants/plate.

Q: What about the “carcinogenic and mutagenic action” value [4] of the same molecule?
A: The value was “no carcinogenic and mutagenic action”.

Q: What about the “Tumor incidence (%)” value [5] of the same molecule?
A: Its value is 35.8 ± 4.5%.

Q: And the “% Aberrant cells (mean ± SEM)” value [6, 8]?
A: Its value is 0.5 ± 0.1%.

Q: What about the “Aberration/100 cells, Chromosome Breaks” value [6, 8] of the same molecule?
A: Its value is 0.1 /100 cells.

Q: What about the “% Aberrant cells (mean ± SEM)” value [6, 9] of the same molecule?
A: Its value is 0.8 ± 0.2%.

Q: And the “Aberration/100 cells, Chromosome Breaks” value [6, 9]?
A: The value was 0.5 /100 cells.

Q: And the “% Aberrant cells (mean ± SEM)” value [6, 10]?
A: The value was 1.2 ± 0.4%.

Q: And the “Aberration/100 cells, Chromosome Breaks” value [6, 10]?
A: Its value is 0.7 /100 cells.

Q: And the “Aberration/100 cells, Chromosome Exchanges” value [6, 10]?
A: Its value is 0.1 /100 cells.

Q: What about the “% Aberrant cells (mean ± SEM)” value [6, 11] of the same molecule?
A: The value was 1.8 ± 0.7%.

Q: What about the “Aberration/100 cells, Chromosome Breaks” value [6, 11] of the same molecule?
A: The value was 0.9 /100 cells.

Q: What about the “% Aberrant cells (mean ± SEM)” value [6, 12] of the same molecule?
A: The value was 2.6 ± 0.8%.

Q: And the “Aberration/100 cells, Chromosome Breaks” value [6, 12]?
A: Its value is 1.2 /100 cells.

Q: What about the “Aberration/100 cells, Chromosome Exchanges” value [6, 12] of the same molecule?
A: Its value is 0.1 /100 cells.

Q: And the “% Aberrant cells (mean ± SEM)” value [6, 13]?
A: The value was 5.5 ± 0.5%.

Q: And the “Aberration/100 cells, Chromosome Breaks” value [6, 13]?
A: The value was 1.3 /100 cells.

Q: What about the “Aberration/100 cells, Chromosome Exchanges” value [6, 13] of the same molecule?
A: Its value is 0.2 /100 cells.

Q: What about the “Apoptosis (%)” value ([7]; HHT 10 ng/ml) of the same molecule?
A: Its value is 33.8 ± 4.8 %.

Q: What about the “Apoptosis (%)” value ([7]; HHT 50 ng/ml) of the same molecule?
A: The value was 42.8 ± 5.2 %.

Q: And the “Apoptosis (%)” value ([7]; HHT 100 ng/ml)?
A: Its value is 60.2 ± 8.9 %.

Q: And the “Apoptosis (%)” value ([7]; HHT 500 ng/ml)?
A: Its value is 92.0 ± 10.8 %.

Q: What about the “Apoptosis (%)” value ([7]; Table 4, HHT (50 ng/ml) alone or in combination) of the same molecule?
A: Its value is 42.8 ± 5.2%.
